One experiment deals with KRas Q61H (Homo sapiens, UniProt P01116, Q61H). Put plainly: KRas binding assay (TR-FRET displacement), KRas Q61H. The conditions noted are these: TR-FRET displacement.
In a further experiment the target is KRas G13D (Homo sapiens, UniProt P01116, G13D). The format is binding. The conditions noted are these: TR-FRET displacement, read-out: Binding to KRas (IC50 nM) G13D.
A further experiment deals with KRas G12D (Homo sapiens, UniProt P01116, G12D). Nature of the experiment: biochemical. The conditions noted are these: Binding to KRas (IC50 nM) G12D, TR-FRET displacement, KRas G12D. For orientation: In TR-FRET formats the signal depends on donor and acceptor labels being close together.
In another experiment the target is KRas G12S (Homo sapiens, UniProt P01116, G12S). In kind it is binding. The conditions noted are these: TR-FRET displacement, read-out: Binding to KRas (IC50 nM) G12S.
The target in the next experiment is KRas G12V (Homo sapiens, UniProt P01116, G12V). Put plainly: biochemical. The conditions noted are these: Binding to KRas (IC50 nM) G12V, TR-FRET displacement, KRas G12V.
The target of the next experiment is KRas WT (Homo sapiens, UniProt P01116). Put plainly: KRas binding assay (TR-FRET displacement), KRas WT. The conditions noted are these: TR-FRET displacement.
A further experiment addresses KRas G12A (Homo sapiens, UniProt P01116, G12A). In kind it is binding. The conditions noted are these: TR-FRET displacement, read-out: Binding to KRas (IC50 nM) G12A.
Another experiment addresses KRas G12C (Homo sapiens, UniProt P01116, G12C). In kind it is binding. The conditions noted are these: TR-FRET displacement, read-out: Binding to KRas (IC50 nM) G12C.

A value given as a limit tells only on which side of the number the result lay.

Chain of KRas WT (P01116 1-169 isoform P01116-2): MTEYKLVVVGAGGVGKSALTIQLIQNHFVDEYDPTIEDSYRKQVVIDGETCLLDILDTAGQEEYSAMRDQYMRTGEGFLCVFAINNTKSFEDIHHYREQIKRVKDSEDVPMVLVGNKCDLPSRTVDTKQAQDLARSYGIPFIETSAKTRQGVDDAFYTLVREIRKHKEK
Chain of KRas G13D (P01116 1-169 isoform P01116-2 G13D): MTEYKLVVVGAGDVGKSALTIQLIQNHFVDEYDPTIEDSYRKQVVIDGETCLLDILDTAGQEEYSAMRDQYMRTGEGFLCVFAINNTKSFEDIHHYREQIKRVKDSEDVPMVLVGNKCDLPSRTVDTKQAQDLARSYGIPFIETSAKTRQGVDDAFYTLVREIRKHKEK
Chain of KRas G12S (P01116 1-169 isoform P01116-2 G12S): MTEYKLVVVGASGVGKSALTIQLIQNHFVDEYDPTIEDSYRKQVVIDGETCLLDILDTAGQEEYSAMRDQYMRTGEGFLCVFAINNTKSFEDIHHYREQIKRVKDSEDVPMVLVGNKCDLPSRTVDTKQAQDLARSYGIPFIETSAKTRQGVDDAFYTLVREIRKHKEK
Chain of KRas Q61H (P01116 1-169 isoform P01116-2 Q61H): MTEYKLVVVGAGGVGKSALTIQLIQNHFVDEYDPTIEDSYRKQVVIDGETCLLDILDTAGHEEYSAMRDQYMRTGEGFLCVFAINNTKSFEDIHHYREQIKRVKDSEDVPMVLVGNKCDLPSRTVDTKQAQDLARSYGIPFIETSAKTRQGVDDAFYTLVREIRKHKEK
Chain of KRas G12V (P01116 1-169 isoform P01116-2 G12V): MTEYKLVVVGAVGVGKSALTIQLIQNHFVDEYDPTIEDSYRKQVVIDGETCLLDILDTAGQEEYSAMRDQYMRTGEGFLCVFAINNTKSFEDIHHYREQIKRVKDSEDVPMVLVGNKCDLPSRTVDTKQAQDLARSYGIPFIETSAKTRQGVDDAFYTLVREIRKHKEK
Chain of KRas G12C (P01116 1-169 isoform P01116-2 G12C): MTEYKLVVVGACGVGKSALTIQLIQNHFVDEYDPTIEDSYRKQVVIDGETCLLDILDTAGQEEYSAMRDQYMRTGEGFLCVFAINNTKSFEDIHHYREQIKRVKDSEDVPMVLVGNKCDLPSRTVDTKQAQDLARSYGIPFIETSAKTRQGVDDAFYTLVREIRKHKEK
Chain of KRas G12D (P01116 1-169 isoform P01116-2 G12D): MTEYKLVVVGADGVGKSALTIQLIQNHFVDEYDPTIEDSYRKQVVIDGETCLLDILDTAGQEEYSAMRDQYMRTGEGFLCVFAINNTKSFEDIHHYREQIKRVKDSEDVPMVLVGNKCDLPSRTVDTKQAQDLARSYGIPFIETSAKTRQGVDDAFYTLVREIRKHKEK
Chain of KRas G12A (P01116 1-169 isoform P01116-2 G12A): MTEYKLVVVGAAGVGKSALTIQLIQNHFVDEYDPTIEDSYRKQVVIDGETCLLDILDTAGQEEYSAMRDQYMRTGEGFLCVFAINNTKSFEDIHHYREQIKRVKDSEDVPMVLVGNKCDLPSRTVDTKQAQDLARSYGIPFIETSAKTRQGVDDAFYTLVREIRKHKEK

A word on the IC50: it is the concentration that gives 50% inhibition. Take `CCc1cccc2cccc(N3CCc4c(nc(OCC5(CN(C)C)CC5)nc4NCc4nnc5c(Cl)cccn45)C3)c12` [Example 563, N-((8-chloro-[1,2,4]triazolo[4,3-a]pyridin-3-yl)methyl)-2-((1-((dimethylamino)methyl)cyclopropyl)methoxy)-7-(8-ethylnaphthalen-1-yl)-5,6,7,8-tetrahydropyrido[3,4-d]pyrimidin-4-amine]: the IC50 was 231 nM at KRas Q61H; 1040 nM at KRas G13D; 30500 nM at KRas G12D; 320 nM on KRas G12S; 6510 nM on KRas G12V; 776 nM on KRas WT. Moreover, the results for the IC50 at KRas G12A and at KRas G12C were 1370 nM and 697 nM, respectively.
As to `CCc1cccc2cccc(N3CCc4c(nc(OCC5(CN(C)C)CC5)nc4N4CCN(c5nc(O)cs5)CC4)C3)c12` [Example 564, 2-(4-(2-((1-((dimethylamino)methyl)cyclopropyl)methoxy)-7-(8-ethylnaphthalen-1-yl)-5,6,7,8-tetrahydropyrido[3,4-d]pyrimidin-4-yl)piperazin-1-yl)thiazol-4-ol], the IC50 on KRas Q61H came to 4380 nM; at KRas G13D it was 7400 nM; on KRas G12D, 29500 nM; on KRas G12S, 14200 nM; on KRas G12V, 3710 nM; at KRas WT, 6920 nM. Further, the values for the IC50 at KRas G12A and at KRas G12C were 11600 nM and 8580 nM, respectively.
As to `CCc1cccc2cccc(N3CCc4c(nc(OCC5(CN(C)C)CC5)nc4NCCc4cc(Br)no4)C3)c12` [Example 565, N-(2-(3-bromoisoxazol-5-yl)ethyl)-2-((1-((dimethylamino)methyl)cyclopropyl)methoxy)-7-(8-ethylnaphthalen-1-yl)-5,6,7,8-tetrahydropyrido[3,4-d]pyrimidin-4-amine], the IC50 on KRas Q61H came to 34400 nM; at KRas G13D, 18900 nM; on KRas G12D it was 34300 nM; at KRas G12S, 12900 nM; at KRas G12V it was 6620 nM; at KRas WT it was 13000 nM. Besides, the half-inhibitory concentration (IC50) at KRas G12A stood at 12200 nM; at KRas G12C it was 8620 nM.
Regarding `CCc1cccc2cccc(N3CCc4c(nc(OCC5(CN(C)C)CC5)nc4N4CCOC(c5noc(C6CC6)n5)C4)C3)c12` (centres unmarked) [Example 566, 1-(1-(((4-(2-(5-cyclopropyl-1,2,4-oxadiazol-3-yl)morpholino)-7-(8-ethylnaphthalen-1-yl)-5,6,7,8-tetrahydropyrido[3,4-d]pyrimidin-2-yl)oxy)methyl)cyclopropyl)-N,N-dimethylmethanamine], the half-inhibitory concentration (IC50) was 15200 nM at KRas Q61H; 15300 nM on KRas G13D; 35600 nM on KRas G12D; 8690 nM at KRas G12S; 5700 nM on KRas G12V; 8780 nM on KRas WT. Also, the IC50 was determined as 7990 nM at KRas G12A and 3760 nM on KRas G12C.
As to `CCc1cccc2cccc(N3CCc4c(nc(OCC5(CN(C)C)CC5)nc4NCc4cc(C5CC5)nn4C)C3)c12` [Example 567, N-((3-cyclopropyl-1-methyl-1H-pyrazol-5-yl)methyl)-2-((1-((dimethylamino)methyl)cyclopropyl)methoxy)-7-(8-ethylnaphthalen-1-yl)-5,6,7,8-tetrahydropyrido[3,4-d]pyrimidin-4-amine], the half-maximal inhibitory concentration (IC50) on KRas Q61H turned out to be 9550 nM; on KRas G13D it was 11800 nM; at KRas G12D, 37600 nM; on KRas G12S, 4330 nM; at KRas G12V, 5760 nM; at KRas WT, 11600 nM. The IC50 is 6050 nM on KRas G12A and 3470 nM at KRas G12C.
Consider `CCc1cccc2cccc(N3CCc4c(nc(OCC5(CN(C)C)CC5)nc4NCCc4ncc(F)cc4F)C3)c12` [Example 568, N-(2-(3,5-difluoropyridin-2-yl)ethyl)-2-((1-((dimethylamino)methyl)cyclopropyl)methoxy)-7-(8-ethylnaphthalen-1-yl)-5,6,7,8-tetrahydropyrido[3,4-d]pyrimidin-4-amine], for which the IC50 at KRas Q61H came to 15300 nM; at KRas G13D, 19800 nM; on KRas G12D, 39100 nM; on KRas G12S, 13600 nM; at KRas G12V it was 5210 nM; at KRas WT, 15700 nM. Moreover, the IC50 is 13400 nM at KRas G12A and 7900 nM on KRas G12C.
For the compound `CCc1cccc2cccc(N3CCc4c(nc(OCC5(CN(C)C)CC5)nc4NCC4(c5ccccc5)CCC(=O)N4)C3)c12` (centres unmarked) [Example 569, 5-(((2-((1-((dimethylamino)methyl)cyclopropyl)methoxy)-7-(8-ethylnaphthalen-1-yl)-5,6,7,8-tetrahydropyrido[3,4-d]pyrimidin-4-yl)amino)methyl)-5-phenylpyrrolidin-2-one], the IC50 at KRas Q61H is 10500 nM; at KRas G13D, 16900 nM; on KRas G12D, 41500 nM; on KRas G12S it was 8590 nM; on KRas G12V it was 4610 nM; on KRas WT, 12200 nM. Moreover, the results for the 50% inhibitory concentration (IC50) on KRas G12A and on KRas G12C were 10800 nM and 7220 nM, respectively.
Turning to `CCc1cccc2cccc(N3CCc4c(nc(OCC5(CN(C)C)CC5)nc4NCCc4nnc5n4CCC5)C3)c12` [Example 570, N-(2-(6,7-dihydro-5H-pyrrolo[2,1-c][1,2,4]triazol-3-yl)ethyl)-2-((1-((dimethylamino)methyl)cyclopropyl)methoxy)-7-(8-ethylnaphthalen-1-yl)-5,6,7,8-tetrahydropyrido[3,4-d]pyrimidin-4-amine], the IC50 on KRas Q61H turned out to be 37 nM; at KRas G13D, 72 nM; at KRas G12D it was 39000 nM; on KRas G12S, 58 nM; on KRas G12V, 13700 nM; at KRas WT, 99 nM. The half-maximal inhibitory concentration (IC50) was determined as 134 nM on KRas G12A and 74 nM on KRas G12C.
As to `CCc1cccc2cccc(N3CCc4c(nc(OCC5(CN(C)C)CC5)nc4NCc4cnnn4C)C3)c12` [Example 662, 2-((1-((dimethylamino)methyl)cyclopropyl)methoxy)-7-(8-ethylnaphthalen-1-yl)-N-((1-methyl-1H-1,2,3-triazol-5-yl)methyl)-5,6,7,8-tetrahydropyrido[3,4-d]pyrimidin-4-amine], the half-inhibitory concentration (IC50) at KRas Q61H was determined as 10500 nM; at KRas G13D, 13600 nM; on KRas G12D it was 14400 nM; at KRas G12S, 10100 nM; on KRas G12V, 4040 nM; on KRas WT it was 10300 nM. For the same compound, the IC50 on KRas G12A is 9520 nM; at KRas G12C, 5470 nM.
For `CCc1cccc2cccc(N3CCc4c(nc(OCC5(CN(C)C)CC5)nc4N4CCn5nncc5C4)C3)c12` [Example 665, 1-(1-(((4-(6,7-dihydro-[1,2,3]triazolo[1,5-a]pyrazin-5(4H)-yl)-7-(8-ethylnaphthalen-1-yl)-5,6,7,8-tetrahydropyrido[3,4-d]pyrimidin-2-yl)oxy)methyl)cyclopropyl)-N,N-dimethylmethanamine], the IC50 on KRas Q61H was greater than 100000 nM; on KRas G13D, greater than 100000 nM; on KRas G12D it was 6840 nM; on KRas G12S, 62800 nM; on KRas G12V, 10800 nM; on KRas WT, 87600 nM. The 50% inhibitory concentration (IC50) at KRas G12A came to 83100 nM; at KRas G12C, 37800 nM.
As for `CCc1cccc2cccc(N3CCc4c(nc(OCC5(CN(C)C)CC5)nc4NCCc4sc(N)nc4C)C3)c12` [Example 670, 5-(2-((2-((1-((dimethylamino)methyl)cyclopropyl)methoxy)-7-(8-ethylnaphthalen-1-yl)-5,6,7,8-tetrahydropyrido[3,4-d]pyrimidin-4-yl)amino)ethyl)-4-methylthiazol-2-amine], the IC50 stood at 2030 nM on KRas Q61H; 1970 nM on KRas G13D; 9750 nM on KRas G12D; 1980 nM on KRas G12S; 1540 nM at KRas G12V; 1960 nM on KRas WT. Also, the concentration for half-maximal inhibition (IC50) came to 1880 nM at KRas G12A and 602 nM on KRas G12C.
In the case of `CCc1cccc2cccc(N3CCc4c(nc(OCC5(CN(C)C)CC5)nc4NCCc4nnc(N)o4)C3)c12` [Example 671, 5-(2-((2-((1-((dimethylamino)methyl)cyclopropyl)methoxy)-7-(8-ethylnaphthalen-1-yl)-5,6,7,8-tetrahydropyrido[3,4-d]pyrimidin-4-yl)amino)ethyl)-1,3,4-oxadiazol-2-amine], the IC50 at KRas Q61H came to 30200 nM; on KRas G13D, 33000 nM; at KRas G12D, 11800 nM; on KRas G12S it was 16500 nM; on KRas G12V, 1980 nM; at KRas WT, 23900 nM. In addition, the IC50 on KRas G12A amounted to 10200 nM; at KRas G12C it was 5240 nM.
Consider `CCc1cccc2cccc(N3CCc4c(nc(OCC5(CN(C)C)CC5)nc4NC4CN(c5nncs5)C4)C3)c12` [Example 674, N-(1-(1,3,4-thiadiazol-2-yl)azetidin-3-yl)-2-((1-((dimethylamino)methyl)cyclopropyl)methoxy)-7-(8-ethylnaphthalen-1-yl)-5,6,7,8-tetrahydropyrido[3,4-d]pyrimidin-4-amine], for which the IC50 at KRas Q61H turned out to be 3960 nM; on KRas G13D, 4050 nM; on KRas G12D, 1410 nM; on KRas G12S it was 3700 nM; at KRas G12V, 1250 nM; on KRas WT it was 3490 nM. The 50% inhibitory concentration (IC50) at KRas G12A is 3970 nM; at KRas G12C it was 2030 nM.

For the origin of these results see US20250368649A1, “TETRAHYDROPYRIDOPYRIMIDINE PAN-KRAS INHIBITORS” (Mirati Therapeutics, Inc., priority 2022, published 2025).
